Laboratory results reported in patent US8735141B2, “Vermiculture compositions” (M-I L.L.C., priority 2001, dated 2014).

Experiments:
[1] = test system: Earthworms (Esenia fetida); experiment: Earthworm survival; format: in vivo; details: base fluids
Protocol: (§1) Environmental tests were carried out on the base fluids, several muds, and a few samples of mud-coated cuttings before and after treatment in a bioreactor. The tests consisted of the following: (a) biodegradability (respiration rate and hydrocarbon loss in a reference moist soil); (b) phytoxicity (alfalfa seed emergence and root elongation); (c) earthworm survival; (d) springtail survival; and (e) Microtox (IC-50 on bioluminescent bacterium Photobacterium phosporeum).
Earthworms (Esenia fetida) toxicity

[2] = Toxicity of various base fluids, overall rank; details: 1 = least toxic
Protocol: as §1
One of skill in the art will appreciate that the results of Table 1 indicate that diesel and the branched paraffins are more resistant to rapid biodegradation than the other four fluids.

[3] = Biodegradability (respiration rate and hydrocarbon loss in a reference moist soil); details: base fluids, 1 = most biodegradable
Protocol: as §1
Biodegradability and toxicity of Formulations A and N are contrasted with those of typical diesel/CaCl2/barite fluid in Table 4. The leading rate on the test soil in Table 4 was 6% w/w. […] In comparing formulation A with a similar formulation weighted with barite (instead of hematite), biodegradability and toxicity appear to be similar for the two fluids. However, a soil-enhancing iron source is considered desirable for its long-term potential benefits.
Biodegradability (Respiration rate and hydrocarbon loss in moist soil.)

[4] = test system: alfalfa; experiment: Alfalfa phytotoxicity (seed emergence, root elongation, shoot mass); format: in vivo; details: base fluids; normalized to Control test values of 100
Protocol: as §1
Alfalfa seed emergence and root elongation.

Isomerized tetradecene [Isomerized tetradecene C14 (IO)]
Animal Toxicity % Earthworm Survival [1]: 100%
Toxicity Rank [2]: 4
Biodegradability Rank [3]: 4
Alfalfa Phytotoxicity % Root Elongation [4]: 144%
Alfalfa Phytotoxicity % Seed Emergence [4]: 101%
